Laboratory results taken from patent publication US20060069132A1, “Azolecarboxamide herbicides” (priority 2004, published 2006).

Key:
[1] = system: smallflower umbrella sedge; test: Test C flooded paddy test; type: in vivo, Cyperus difformis
giant foxtail = test: Test B pre-/postemergence herbicide test; type: in vivo, Setaria faberi; conditions: for Foxtail, Giant plant response rating: postemergence
How it was run: (§1)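 Flooded paddy rice and barnyardgrass were treated at the 2-leaf stage; upland plantings received compound either on sown seed or on 1- to 4-leaf seedlings. All were kept 13–15 days in a greenhouse and scored visually, 0–100, relative to untreated plants.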

morningglory = test: Test B pre-/postemergence herbicide test; type: in vivo, Ipomoea coccinea; conditions: for Morningglory plant response rating: postemergence
How it was run: (§2)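 Test chemicals in a non-phytotoxic solvent mixture with surfactant were applied preemergence to seeded species and postemergence to plants 2-18 cm tall (1- to 4-leaf stage); rice and barnyardgrass were also tested in a flooded paddy at the 2-leaf stage. Visual rating versus controls after 13-15 days in greenhouse, scale 0 (no effect) to 100 (complete control).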

wheat = test: Test B postemergence herbicide test; type: in vivo, Triticum aestivum; parameters: key to Wheat plant response rating: 0 = no effect, 100 = complete control; conditions: postemergence
How it was run: (§3)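 Each value is a visual 0–100 response rating taken against controls 13 to 15 days after treatment in the greenhouse. Plants received formulated chemical postemergence at the 1- to 4-leaf stage or, in flooded paddy, at the 2-leaf stage.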

velvetleaf = test: Test B pre-/postemergence herbicide test; type: in vivo, Abutilon theophrasti; conditions: for Velvetleaf plant response rating: postemergence
How it was run: as §1

barnyardgrass [2] = test: Test B pre-/postemergence herbicide test; type: in vivo, Echinochloa crus-galli; conditions: for Barnyardgrass plant response rating: postemergence, scale 0 (no effect) to 100 (complete control)
How it was run: as §2

ducksalad [3] = test: Test B flooded paddy test; type: in vivo, Heteranthera limosa; conditions: 1000 g ai/ha, scale 0 to 100 (0 no effect, 100 complete control)
How it was run: (§4)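 Paddy species grown to the 2-leaf stage under flooding; blackgrass sprayed postemergence at 2–18 cm (1- to 4-leaf stage). Plants kept in a greenhouse for 13 to 15 days, then visually rated against controls on 0 (no effect) to 100 (complete control).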

rice [4] = test: Test B pre-/postemergence herbicide test; type: in vivo, Oryza sativa; conditions: 0 = no effect, 100 = complete control, preemergence
How it was run: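 Evaluation is visual, comparing treated with control plants on a scale where 0 means no effect and 100 means full control. Treatments were preemergence, or postemergence on seedlings 2–18 cm tall, and held 13–15 days in the greenhouse.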

barnyardgrass [5] = test: Test B flooded paddy test; type: in vivo, Echinochloa crus-galli; conditions: 1000 g ai/ha, scale 0 to 100 (0 no effect, 100 complete control)
How it was run: as §4

rice [6] = test: Test B flooded paddy test; type: in vivo, Oryza sativa; conditions: 1000 g ai/ha, scale 0 to 100 (0 no effect, 100 complete control)
How it was run: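 After treating 2-leaf paddy plants or 2–18 cm postemergence plants (1 to 4 leaves) with formulated chemical, researchers kept them in a greenhouse for 13–15 days. Effects were judged visually versus controls: 0 indicates none, 100 total control.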

Surinam grass = test: Test B pre-/postemergence herbicide test; type: in vivo, Urochloa decumbens; conditions: for Surinam Grass plant response rating: postemergence
How it was run: as §1

large crabgrass = test: Test B pre-/postemergence herbicide test; type: in vivo, Digitaria sanguinalis; conditions: for Crabgrass, Large plant response rating: postemergence
How it was run: as §1

barnyardgrass [7] = test: Test C flooded paddy test; type: in vivo, Echinochloa crus-galli
How it was run: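 Ratings (0 = no effect, 100 = complete control) come from visual comparison with untreated plants after 12 to 14 days in the greenhouse. Treatment was postemergence at the 1- to 4-leaf stage (2–18 cm), or at the 2-leaf stage for the flooded paddy barnyardgrass.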

ducksalad [8] = test: Test C flooded paddy test; type: in vivo, Heteranthera limosa
lambsquarters = test: Test B pre-/postemergence herbicide test; type: in vivo, Chenopodium album; conditions: for Lambsquarters plant response rating: postemergence
How it was run: as §1

pigweed = test: Test B pre-/postemergence herbicide test; type: in vivo, Amaranthus retroflexus; conditions: for Pigweed plant response rating: postemergence
How it was run: as §1

wild oat = test: Test B postemergence herbicide test; type: in vivo, Avena fatua; conditions: postemergence
How it was run: as §3

cocklebur = test: Test B pre-/postemergence herbicide test; type: in vivo, Xanthium strumarium; conditions: for Cocklebur plant response rating: postemergence, scale 0 (no effect) to 100 (complete control)
How it was run: as §2

blackgrass = test: Test B postemergence herbicide test; type: in vivo, Alopecurus myosuroides; conditions: postemergence, visual rating, scale 0 (no effect) to 100 (complete control)
How it was run: as §4

rice [9] = test: Test C flooded paddy test; type: in vivo, Oryza sativa
How it was run: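 Postemergence sprays applied to plants 2 to 18 cm tall (1- to 4-leaf stage); paddy species grown to 2-leaf stage under flooding. After 12 to 14 days in greenhouse, visual rating versus untreated controls on 0–100 scale (0 no effect, 100 complete control).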

corn = test: Test B pre-/postemergence herbicide test; type: in vivo, Zea mays; conditions: for Corn plant response rating: postemergence
How it was run: as §1

[10] = system: small flower umbrella sedge; test: Test B flooded paddy test; type: in vivo, Cyperus difformis; conditions: 1000 g ai/ha, scale 0 to 100 (0 no effect, 100 complete control)
How it was run: as §4

[11] = 125 g ai/ha, scale 0 to 100 (0 no effect, 100 complete control)
[12] = 250 g ai/ha, scale of 0 to 100, 0 is no effect, 100 is complete control
[13] = 500 g ai/ha, visual rating after 12 to 14 days, scale 0 to 100 (0 no effect, 100 complete control)
[14] = 125 g ai/ha, 0 = no effect, 100 = complete control, preemergence
[15] = 500 g ai/ha, visual rating, 0 = no effect, 100 = complete control, preemergence
[16] = 125 g ai/ha, visual rating, scale 0 (no effect) to 100 (complete control)
[17] = 500 g ai/ha, scale 0 to 100, 0 is no effect, 100 is complete control

CCNC(=O)c1ccc(OC)c(NC(=O)c2cc(C(C)(C)C)nn2CC)n1 [Compound 266]
Sedge, Umbrella plant response rating ([1]; 62 g ai/ha, scale 0 to 100): 0
Sedge, Umbrella plant response rating [1, 11]: 20
Sedge, Umbrella plant response rating [1, 12]: 55
Plant response rating, Sedge, Umbrella [1, 13]: 80
Foxtail, Giant plant response rating (0 to 100 scale) (giant foxtail; [14]): 80
Plant response rating, Foxtail, Giant (giant foxtail; [15]): 100
Foxtail, Giant plant response rating (giant foxtail; [16]): 0
Foxtail, Giant plant response rating (giant foxtail; [17]): 20
Morningglory plant response rating (0 to 100 scale) (morningglory; [14]): 0
Plant response rating, Morningglory (morningglory; [15]): 10
Morningglory plant response rating (morningglory; [16]): 30
Morningglory plant response rating (morningglory; [17]): 50
Wheat plant response rating (wheat; [16]): 20
Wheat plant response rating (wheat; [17]): 30
Velvetleaf plant response rating (0 to 100 scale) (velvetleaf; [14]): 20
Plant response rating, Velvetleaf (velvetleaf; [15]): 100
Velvetleaf plant response rating (velvetleaf; [16]): 0
Velvetleaf plant response rating (velvetleaf; [17]): 0
Barnyardgrass plant response rating (0 to 100 scale) (barnyardgrass [2]; [14]): 60
Plant response rating, Barnyardgrass (barnyardgrass [2]; [15]): 80
Barnyardgrass plant response rating (barnyardgrass [2]; 125 g ai/ha, visual rating): 0
Barnyardgrass plant response rating (barnyardgrass [2]; 500 g ai/ha, visual rating): 0
Ducksalad plant response rating (ducksalad [3]): 90
Rice plant response rating (0 to 100 scale) (rice [4]; 125 g ai/ha): 70
Plant response rating, Rice (rice [4]; 500 g ai/ha, visual rating): 80
Barnyardgrass plant response rating (barnyardgrass [5]): 80
Rice plant response rating (rice [6]): 80
Surinam Grass plant response rating (0 to 100 scale) (Surinam grass; [14]): 60
Plant response rating, Surinam Grass (Surinam grass; [15]): 90
Surinam Grass plant response rating (Surinam grass; [16]): 10
Surinam Grass plant response rating (Surinam grass; [17]): 20
Crabgrass, Large plant response rating (0 to 100 scale) (large crabgrass; [14]): 50
Plant response rating, Crabgrass, Large (large crabgrass; [15]): 100
Crabgrass, Large plant response rating (large crabgrass; [16]): 0
Crabgrass, Large plant response rating (large crabgrass; [17]): 0
Barnyardgrass plant response rating (barnyardgrass [7]; 62 g ai/ha, scale 0 to 100 (0 no effect, 100 complete control)): 0
Barnyardgrass plant response rating (barnyardgrass [7]; [11]): 25
Barnyardgrass plant response rating (barnyardgrass [7]; [12]): 50
Plant response rating, Barnyardgrass (barnyardgrass [7]; [13]): 70
Ducksalad plant response rating (ducksalad [8]; 62 g ai/ha, scale 0 to 100): 0
Ducksalad plant response rating (ducksalad [8]; [11]): 15
Ducksalad plant response rating (ducksalad [8]; [12]): 75
Plant response rating, Ducksalad (ducksalad [8]; [13]): 95
Lambsquarters plant response rating (0 to 100 scale) (lambsquarters; [14]): 100
Plant response rating, Lambsquarters (lambsquarters; [15]): 100
Lambsquarters plant response rating (lambsquarters; [16]): 60
Lambsquarters plant response rating (lambsquarters; [17]): 100
Pigweed plant response rating (0 to 100 scale) (pigweed; [14]): 100
Plant response rating, Pigweed (pigweed; [15]): 100
Pigweed plant response rating (pigweed; [16]): 20
Pigweed plant response rating (pigweed; [17]): 100
Oat, Wild plant response rating (wild oat; [16]): 10
Oat, Wild plant response rating (wild oat; [17]): 20
Cocklebur plant response rating (0 to 100 scale) (cocklebur; [14]): 0
Plant response rating, Cocklebur (cocklebur; [15]): 10
Cocklebur plant response rating (cocklebur; 125 g ai/ha, visual rating): 0
Cocklebur plant response rating (cocklebur; 500 g ai/ha, visual rating): 0
Blackgrass plant response rating (blackgrass; 125 g ai/ha): 20
Blackgrass plant response rating (blackgrass; 500 g ai/ha): 20
Rice plant response rating (rice [9]; 62 g ai/ha, scale 0 to 100): 0
Rice plant response rating (rice [9]; [11]): 10
Rice plant response rating (rice [9]; [12]): 65
Plant response rating, Rice (rice [9]; [13]): 80
Corn plant response rating (0 to 100 scale) (corn; [14]): 0
Plant response rating, Corn (corn; [15]): 90
Corn plant response rating (corn; [16]): 0
Corn plant response rating (corn; [17]): 0
Sedge, Umbrella plant response rating [10]: 80
